# Patent US5462954A, “Substituted phenyl phenol leukotriene antagonists” (Eli Lilly and Company, priority 1994, dated 1995)
# Where a name gives a salt, the structure may show the parent alone.
# Target: binding of tritiated LTB4 to guinea pig lung membranes (Cavia porcellus, UniProt H0VYV8)
# Experiment: biochemical
# Details: read-out: pKi (mean -log Ki) (converted)
# Procedure: The effectiveness of compounds of Formula I to inhibit the binding of tritiated LTB4 to guinea pig lung membranes was determined as follows.
# The binding reaction was terminated by the addition of 1 mL ice cold wash buffer (25 mM Tris-HCl, pH 7.5) followed immediately by vacuum filtration over Whatman GF/C glass fiber filters using a Brandel (Gaithersburg, Md.) 48 place harvester. The filters were washed three times with 1 mL of wash buffer. Retained radioactivity was determined by liquid scintillation counting at 50% counting efficiency using Ready Protein Plus cocktail (Beckman, Fullerton, Calif.). Nondisplaceable binding was determined in the presence of 1 μM LTB4 and was usually less than 10% of total binding. […] The data reported below is the mean -log Ki, otherwise known as the pKi, for n experiments.
# Sequence of binding of tritiated LTB4 to guinea pig lung membranes (H0VYV8 1-348): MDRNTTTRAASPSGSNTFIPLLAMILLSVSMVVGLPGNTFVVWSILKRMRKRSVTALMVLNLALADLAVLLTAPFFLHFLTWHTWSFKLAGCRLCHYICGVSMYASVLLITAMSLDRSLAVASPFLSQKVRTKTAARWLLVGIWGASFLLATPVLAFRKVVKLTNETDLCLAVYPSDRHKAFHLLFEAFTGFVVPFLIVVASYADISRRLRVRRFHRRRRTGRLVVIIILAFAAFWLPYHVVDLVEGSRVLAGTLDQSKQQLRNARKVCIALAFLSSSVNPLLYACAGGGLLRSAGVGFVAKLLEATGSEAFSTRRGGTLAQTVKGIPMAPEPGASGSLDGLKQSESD
row,SMILES,Ki [nM]
1,"CCc1cc(-c2ccc(F)cc2)c(O)cc1OCCCCOc1ccccc1CCC(=O)O [Example 23, 3-(2-(4-(2-Ethyl-4-(4-fluorophenyl)-5-hydroxyphenoxy)butyloxy)phenyl)propionic acid]",3.72
2,"CCSc1cc(-c2ccc(F)cc2)c(O)cc1OCCCOc1ccccc1CCC(=O)O [Example 31, 3-(2-(3-(2-Ethylthio-4-(4-fluorophenyl)-5-hydroxyphenoxy)propoxy)phenyl)propionic acid]",81.3
3,"CCc1cc(-c2ccc(F)cc2)c(O)cc1OCCCOc1ccccc1C(C)(C)CC(=O)O [Example 27, 3,3-Dimethyl-3-(2-(3-(2-ethyl-4-(4-fluorophenyl)-5-hydroxyphenoxy)propoxy)phenyl)propionic acid]",2.29
4,"CCc1cc(-c2ccc(F)cc2)c(O)cc1OCCC=Cc1ccccc1CCC(=O)O [Example 9, 3-(2-(4-(2-Ethyl-4-(4-fluorophenyl)-5-hydroxyphenoxy)-(1-butenyl))phenyl)propionic acid]",5.13
5,"CCc1cc(-c2ccc(F)cc2)c(O)cc1OCCCOc1cccc(OC)c1CCC(=O)O [Example 6, 3-(2-(3-(2-Ethyl-4-(4-fluorophenyl)-5-hydroxyphenoxy)propoxy)-6-methoxyphenyl)propionic acid]",5.01
6,"CCc1cc(-c2ccc(F)cc2)c(O)cc1OCCCOc1ccccc1C(O)C(C)(C)c1nnn[nH]1 (stereo not drawn) [Example 29, 2-Methyl-2-(1H-tetrazol-5-yl)-3-hydroxy-3-(2-(3-(2-ethyl-4-(4-fluorophenyl)-5-hydroxyphenoxy)propoxy)phenyl)propane]",1.95
7,"CCc1cc(-c2ccc(F)cc2)c(O)cc1OCCCOc1cccc(Oc2ccc(C(=O)O)cc2)c1CCC(=O)O [Example 25, 3-(2-(3-(2-Ethyl-4-(4-fluorophenyl)-5-hydroxyphenoxy)propoxy)-6-(4-carboxyphenoxy)phenyl)propionic acid]",0.138
8,"CCc1cc(-c2ccc(F)cc2)c(O)cc1OCCCOc1ccccc1CCC(=O)NS(C)(=O)=O [Example 19, N-Methanesulfonyl-3-(2-(3-(2-ethyl-4-(4-fluorophenyl)-5-hydroxyphenoxy)propoxy)phenyl)propionamide]",1.51
9,"CCc1cc(-c2ccc(F)cc2)c(O)cc1OCCCCc1ccccc1CCC(=O)O [Example 10, 3-(2-(4-(2-Ethyl-4-(4-fluorophenyl)-5-hydroxyphenoxy)butyl)phenyl)propionic acid]",8.91
10,CCc1cc(-c2ccc(F)cc2)c(O)cc1OCCCOc1ccc(C(=O)CC(C)(C)CC(=O)O)cc1CCC(=O)O [Example 53],1.55
11,"CCCc1c(OCCCCCOc2cc(O)c(-c3ccc(F)cc3)cc2CC)cccc1Oc1ccccc1C(=O)O [Example 72, 2-[2-Propyl-3-[5-[2-ethyl-5-hydroxy-4-(4-fluorophenyl)phenoxy]pentoxy]phenoxy]benzoic acid]",6.61
12,"CCc1cc(-c2ccc(F)cc2)c(O)cc1OCC/C=C\c1ccccc1CCC(=O)O [9 (cis), 3-(2-(4-(2-Ethyl-4-(4-fluorophenyl)-5-hydroxyphenoxy)-(1-butenyl))phenyl)propionic acid]",3.63
13,"CCc1cc(-c2ccc(F)cc2)c(O)cc1OCCCOc1ccc2c(c1CCC(=O)O)CC(CC(=O)O)C2=O (stereo not drawn) [Example 52, 3-(4-(5-(4-(4-Fluorophenyl)-5-hydroxy-2-ethylphenoxy)propoxy)-2-carboxymethyl-2,3-dihydroinden-1(2H)-one)propanoic acid]",0.263
14,"CCc1cc(-c2ccc(F)cc2)c(O)cc1OCCCCc1cccc(OC)c1CCC(=O)O [Example 11, 3-(2-(4-(2-Ethyl-4-(4-fluorophenyl)-5-hydroxyphenoxy)butyl)-6-methoxyphenyl)propionic acid]",21.4
15,"CCc1cc(-c2ccc(F)cc2)c(O)cc1OCCCOc1ccccc1CC(C)(C)c1nnn[nH]1 [Example 28, 2-Methyl-2-(1H-tetrazol-5-yl)-3-(2-(3-(2-ethyl-4-(4-fluorophenyl)-5-hydroxyphenoxy)propoxy)phenyl)propane]",2.69
16,"CCc1cc(-c2ccc(F)cc2)c(O)cc1OCCCOc1cc(Oc2ccc(C(=O)O)cc2)ccc1CCC(=O)O [Example 26, 3-(2-(3-(2-Ethyl-4-(4-fluorophenyl)-5-hydroxyphenoxy)propoxy)-4-(4-carboxyphenoxy)phenyl)propionic acid]",13.8
17,"CCc1cc(-c2ccc(F)cc2)c(O)cc1OCCCOc1cccc(OCCCCC(=O)N(C)C)c1CCC(=O)O [Example 3, 3-(2-(3-(2-Ethyl-4-(4-fluorophenyl)-5-hydroxyphenoxy)propoxy)-6-(4-dimethylaminocarbonylbutyloxy)phenyl)propionic acid]",8.32
18,"CCCCCC(C)(CCCCCOc1cc(O)c(-c2ccc(F)cc2)cc1CC)c1nnn[nH]1 (stereo not drawn) [Example 17, 6-Methyl-6-(1H-tetrazol-5-yl)-11-(2-ethyl-4-(4-fluorophenyl)-5-hydroxyphenoxy)undecane]",53.7
19,"CCc1cc(-c2ccc(F)cc2)c(O)cc1OCCCOc1cccc(OCCCCC(=O)O)c1CCC(=O)O [Example 5, 3-(2-(3-(2-Ethyl-4-(4-fluorophenyl)-5-hydroxyphenoxy)propoxy)-6-(4-carboxybutyloxy)phenyl)propionic acid]",0.55

# Other lines, results leading:
row,Ki [nM],SMILES
1,9.33,"CCCc1c(OCCCOc2cc(O)c(-c3ccccc3)cc2CC)cccc1OC(C)C(=O)O (stereo not drawn) [Example 56, 2-[3-[3-[(5-Ethyl-2-hydroxy[1,1'-biphenyl]-4-yl)oxy]propoxy]-2-propylphenoxy]propanoic acid]"
2,51.3,"CCc1cc(-c2ccccc2)c(O)cc1OCCCOc1ccc2oc3ccccc3c2c1CCC(=O)O [Example 59, 3-[2-[3-[(5-Ethyl-2-hydroxy[1,1'-biphenyl]-4-yl)oxy]propoxy]-1-dibenzofuran]propanoic acid disodium salt]"
3,0.024,"CCc1cc(-c2ccc(F)cc2)c(O)cc1OCCCOc1ccc2c(=O)c3cc(C(=O)O)ccc3oc2c1CCC(=O)O [Example 67, 3-[4-[7-Carboxy-9-oxo-3-[3-[2-ethyl-4-(4-fluorophenyl)-5-hydroxyphenoxy]propoxy]-9H-xanthene]] propanoic acid disodium salt trihydrate]"
4,11.2,"CCCc1c(OCCCOc2cc(O)c(-c3ccc(F)cc3)cc2CC)cccc1Sc1ccccc1C(=O)O [Example 80, 2-[2-Propyl-3-[3-[2-ethyl-4-(4-fluorophenyl)-5-hydroxyphenoxy]propoxy]thiophenoxy]benzoic acid]"
5,25.1,"CCCc1c(CCC(=O)O)cccc1OCCCOc1cc(O)c(-c2ccccc2)cc1CC [Example 96, disodium salt]"
6,13.8,"CCc1cc(-c2ccc(F)cc2)c(O)cc1OCCCOc1cccc(Oc2ccccc2C(=O)O)c1CC(C)C [Example 74, 2-[2-(2-Methylpropyl)-3-[3-[2-ethyl-5-hydroxy-4-(4-fluorophenyl)phenoxy]propoxy]phenoxy]benzoic acid]"
7,12.9,CCc1cc(-c2ccc(F)cc2)c(O)cc1OCCCOc1ccc(NC(=O)CCCC(=O)N2CCOCC2)cc1CCC(=O)O [Example 69]
8,5.01,"CCc1cc(-c2ccc(F)cc2)c(O)cc1OCCCOc1ccccc1/C=C(\C)C(=O)O [Example 88, 3-(2-(3-(2-Ethyl-4-(4-fluorophenyl)-5-hydroxyphenoxy)propoxy)phenyl)-2-methyl-E-propenoic acid]"
9,16.2,"CCCCc1c(OCCCOc2cc(O)c(-c3ccc(F)cc3)cc2CC)cccc1Oc1ccccc1C(=O)O [Example 75, 2-[2-Butyl-3-[3-[2-ethyl-5-hydroxy-4-(4-fluorophenyl)phenoxy]propoxy]phenoxy]benzoic acid hydrate]"
10,3.47,"CCc1cc(-c2ccc(F)cc2)c(O)cc1OCCCOc1ccc2c(=O)c3ccccc3oc2c1CCC(=O)O [Example 68, 3-[4-[9-Oxo-3-[3-[2-ethyl-4-(4-fluorophenyl)-5-hydroxyphenoxy]propoxy]-9H-xanthene]]propanoic acid]"
11,2.95,"CCCc1c(OCCCOc2cc(O)c(-c3ccc(F)cc3)cc2CC)ccc2c1OC(C(=O)O)CC2 (stereo not drawn) [Example 55, 8-Propyl-7-[3-[4-(4-fluorophenyl)-2-ethyl-5-hydroxyphenoxy]propoxy]-3,4-dihydro-2H-1-benzopyran-2-carboxylic acid]"

# Target: T1, human synovial phospholipase A2 (PLA2) (Homo sapiens, UniProt P14555)
# T1 sequence (P14555 21-144): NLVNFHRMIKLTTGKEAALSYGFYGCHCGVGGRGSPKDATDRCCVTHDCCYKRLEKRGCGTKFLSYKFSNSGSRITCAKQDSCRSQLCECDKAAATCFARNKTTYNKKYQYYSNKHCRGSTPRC
# Experiment: in vitro inhibition of human synovial phospholipase A2 (PLA2)
# Format: biochemical
# Details: not given
row,inhibition of human synovial PLA2,SMILES
1,in vitro inhibitors,"CCCc1c(OCCCOc2cc(O)c(-c3ccccc3)cc2CC)cccc1OC(C)C(=O)O (stereo not drawn) [Example 56, 2-[3-[3-[(5-Ethyl-2-hydroxy[1,1'-biphenyl]-4-yl)oxy]propoxy]-2-propylphenoxy]propanoic acid]"
2,in vitro inhibitors,"CCCc1c(OCCCOc2cc(O)c(-c3ccc(F)cc3)cc2CC)ccc2c1OC(C(=O)O)CC2 (stereo not drawn) [Example 55, 8-Propyl-7-[3-[4-(4-fluorophenyl)-2-ethyl-5-hydroxyphenoxy]propoxy]-3,4-dihydro-2H-1-benzopyran-2-carboxylic acid]"

row,SMILES,inhibition of human synovial PLA2
1,CCc1cc(-c2ccccc2)c(O)cc1OCCCCCC(C)(C)c1nn[nH]n1.[Na],in vitro inhibitors

# Target: T2, human cytosolic phospholipase A2 (PLA2) (Homo sapiens, UniProt P47712)
# T2 sequence (P47712 1-749): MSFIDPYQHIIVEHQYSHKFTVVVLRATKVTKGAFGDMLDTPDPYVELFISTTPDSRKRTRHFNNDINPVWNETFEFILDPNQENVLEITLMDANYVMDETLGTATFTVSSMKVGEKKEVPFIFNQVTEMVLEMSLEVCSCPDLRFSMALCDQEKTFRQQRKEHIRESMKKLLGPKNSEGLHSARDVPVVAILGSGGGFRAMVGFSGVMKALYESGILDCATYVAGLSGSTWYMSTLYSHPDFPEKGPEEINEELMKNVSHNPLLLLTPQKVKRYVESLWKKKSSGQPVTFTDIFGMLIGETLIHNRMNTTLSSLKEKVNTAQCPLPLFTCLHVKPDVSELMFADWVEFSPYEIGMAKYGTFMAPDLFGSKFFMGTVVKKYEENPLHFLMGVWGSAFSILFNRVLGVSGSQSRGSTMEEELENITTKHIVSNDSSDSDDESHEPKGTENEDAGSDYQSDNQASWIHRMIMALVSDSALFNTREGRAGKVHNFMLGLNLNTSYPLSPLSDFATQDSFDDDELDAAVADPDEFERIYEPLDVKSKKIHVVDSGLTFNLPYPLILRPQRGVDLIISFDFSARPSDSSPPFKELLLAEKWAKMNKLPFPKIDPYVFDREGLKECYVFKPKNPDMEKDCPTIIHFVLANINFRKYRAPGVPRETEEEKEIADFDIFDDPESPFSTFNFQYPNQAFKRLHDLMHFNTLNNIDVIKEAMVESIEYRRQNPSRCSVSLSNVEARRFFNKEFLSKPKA
# Experiment: in vitro inhibition of human cytosolic phospholipase A2 (PLA2)
# Format: biochemical
# Details: not given
row,inhibition of human cytosolic PLA2,SMILES
1,in vitro inhibitors,"CCCc1c(OCCCOc2cc(O)c(-c3ccccc3)cc2CC)cccc1OC(C)C(=O)O (stereo not drawn) [Example 56, 2-[3-[3-[(5-Ethyl-2-hydroxy[1,1'-biphenyl]-4-yl)oxy]propoxy]-2-propylphenoxy]propanoic acid]"
2,in vitro inhibitors,"CCCc1c(OCCCOc2cc(O)c(-c3ccc(F)cc3)cc2CC)ccc2c1OC(C(=O)O)CC2 (stereo not drawn) [Example 55, 8-Propyl-7-[3-[4-(4-fluorophenyl)-2-ethyl-5-hydroxyphenoxy]propoxy]-3,4-dihydro-2H-1-benzopyran-2-carboxylic acid]"

row,SMILES,inhibition of human cytosolic PLA2
1,CCc1cc(-c2ccccc2)c(O)cc1OCCCCCC(C)(C)c1nn[nH]n1.[Na],in vitro inhibitors
